According to patent US8252832B2, “Kinesin inhibitors as cancer therapeutics” (Novartis AG, priority 2007, dated 2012):
Where two headings read alike, the source gives them in different places.

Legend:
Test in all cases: CellTiter-Glo, NCI60 panel
Assay type in all cases: cell-based
786-0 = conditions: Renal; for GI50: Homo sapiens
From the text: (§1) Identification of tumor types that are the most sensitive to the KSP inhibitors of the present invention can be accomplished using an unbiased approach that uses several cell-based assays. The assays chosen were as follows: • CellTiter-Glo®. This is an assay designed to measure ATP concentration in a cell culture, and can be correlated to cell number. Briefly CellTiter-Glo® (Promega Corporation) is a homogeneous method using the single CellTiter-Glo® reagent to detect ATP wherein ATP in the assay drives the activity of a thermostable luciferase to create a luminescent signal which can then be measured and correlated with the number of viable cells. Briefly, for adherent cells, 1,000 to 5,000 cells/well were plated in 96-well plates (100 μl/well) and let to adhere for 24 hours before being treated with drug. For non-adherent cells, 1,000 to 10,000 cells/well were plated in 96-well plates (100 μl/well) and immediately treated with drug. Drug dilutions were prepared in DMSO at 1000 times the final concentration. These dilutions were then diluted 1/100 in growth media before being added to the cells (11 μl/well) to achieve the desired final concentration. After 48 h in a 37° C. tissue culture incubator, the plates were processed for the CellTiter-Glo®assay according to the manufacturer's instructions. Protocol for a 72 hour cell proliferation assay: The 72 hour assay was performed the same way as the 48 hour assay except for the following modifications: For adherent cells, 500 to 5,000 cells/well were plated in 96-well plates (90 μl/well cell growth media) and left to adhere for 24 hours before being treated with drug. For non-adherent cells, 1,000 to 10,000 cells/well were plated in 96-well plates (90 μl/well cell growth media) and immediately treated with drug. Data values presented represent the concentration of test compound required for a 50% reduction in growth. • LDH release. The Cytotoxicity Detection KitPLUS (LDH) assay (Roche Diagnostics, Manheim, Germany) measures the amount of LDH released in the media by dying cells; LDH catalyzes the conversion of lactate into pyruvate. The enzymatic reaction is coupled to a chemical reaction that uses a tetrazolium salt to form a formazan that is red and can be detected by its absorbance at 490 nm. This assay measures the amount of cell death after drug treatment. Cells were plated at 10,000 cells/well in 96-well plates (100 μl/well). Adherent cells were let to adhere for 24 hours before being treated with drug, whereas non-adherent cells were immediately treated with drug. Drug dilutions were prepared in DMSO at 1000 times the final concentration. These dilutions were then diluted 1/100 in growth media before being added to the cells (11 μl/well) to achieve the desired final concentration. After 48 h in a 37° C. tissue culture incubator, the plates were processed for the Cytotoxicity Detection KitPLUS (LDH) assay according to the manufacturer's instructions. The media only values were subtracted from all the data points before analysis. Data values presented correspond to the compound concentration wherein LDH output is at half maximal level. • Caspase-Glo® 3/7. The Caspase-Glo® 3/7 Assay (Promega Corporation) is a homogeneous luminescent assay that measures caspase-3/7 activities. The assay provides a proluminescent caspase-3/7 DEVD-aminoluciferin substrate and a thermostable luciferase in a reagent optimized for caspase-3/7 activity, luciferase activity and cell lysis. Adding the single Caspase-Glo® 3/7 Reagent results in cell lysis, followed by caspase cleavage of the substrate. This liberates free aminoluciferin, which is consumed by the luciferase, generating a luminescent signal. The signal is proportional to caspase-3/7 activity. Data values presented correspond to the compound concentration wherein caspase 3/7 activity is at half maximal level. […]

MOLT-4 = conditions: Leukemia; for GI50: Homo sapiens
From the text: as §1

SK-MEL-2 = conditions: Melanoma; for GI50: Homo sapiens
From the text: as §1

UACC-62 = conditions: Melanoma; for GI50: Homo sapiens
From the text: as §1

NCI-H460 = conditions: NSCL; for GI50: Homo sapiens
From the text: as §1

NCI-H23 = conditions: NSCL; for GI50: Homo sapiens
From the text: as §1

CAKI-1 = conditions: Renal; for GI50: Homo sapiens
From the text: as §1

UACC-257 = conditions: Melanoma; for GI50: Homo sapiens
From the text: as §1

UO-31 = conditions: Renal; for GI50: Homo sapiens
From the text: as §1

MALME-3M = conditions: Melanoma; for GI50: Homo sapiens
From the text: as §1

NCI-H522 = conditions: NSCL; for GI50: Homo sapiens
From the text: as §1

OVCAR-5 = conditions: Ovarian; for GI50: Homo sapiens
From the text: as §1

HOP-62 = conditions: NSCL; for GI50: Homo sapiens
From the text: as §1

OVCAR-8 = conditions: Ovarian; for GI50: Homo sapiens
From the text: as §1

SF-295 = conditions: CNS; for GI50: Homo sapiens
From the text: as §1

SNB-75 = conditions: CNS; for GI50: Homo sapiens
From the text: as §1

[1] = GI50 in nM, read-out: Log(GI50) (converted)

`CC(C)(C)[C@H](c1nc(-c2cc(F)ccc2F)cn1Cc1ccccc1)N(CC[C@H](N)CF)C(=O)CO` [Compound IIa] was tested, and the GI50 (786-0; [1]) was 10 nM, the GI50 (786-0; read-out: GI50) was 10 nM and the “Differential vs mean Log(GI50)” value (786-0) was −0.669. The GI50 (MOLT-4; [1]) was 0.331 nM, the GI50 (MOLT-4; read-out: GI50) was 0.331 nM and the “Differential vs mean Log(GI50)” value (MOLT-4) was 0.811. The GI50 (SK-MEL-2; [1]) was 2.77 nM, the GI50 (SK-MEL-2; read-out: GI50) was 2.77 nM and the “Differential vs mean Log(GI50)” value (SK-MEL-2) was −0.112. For the same molecule, the GI50 (UACC-62; [1]) was 10 nM, the GI50 (UACC-62; read-out: GI50) was 10 nM and the “Differential vs mean Log(GI50)” value (UACC-62) was −0.669. For the same molecule, the GI50 (NCI-H460; [1]) was 0.378 nM, the GI50 (NCI-H460; read-out: GI50) was 0.378 nM and the “Differential vs mean Log(GI50)” value (NCI-H460) was 0.754. For the same molecule, the GI50 (NCI-H23; [1]) was 0.223 nM, the GI50 (NCI-H23; read-out: GI50) was 0.223 nM and the “Differential vs mean Log(GI50)” value (NCI-H23) was 0.983. For the same molecule, the GI50 (CAKI-1; [1]) was 10 nM, the GI50 (CAKI-1; read-out: GI50) was 10 nM and the “Differential vs mean Log(GI50)” value (CAKI-1) was −0.669. The GI50 (UACC-257; [1]) was 10 nM, the GI50 (UACC-257; read-out: GI50) was 10 nM and the “Differential vs mean Log(GI50)” value (UACC-257) was −0.669. For the same molecule, the GI50 (UO-31; [1]) was 10 nM, the GI50 (UO-31; read-out: GI50) was 10 nM and the “Differential vs mean Log(GI50)” value (UO-31) was −0.669. For the same molecule, the GI50 (MALME-3M; [1]) was 10 nM, the GI50 (MALME-3M; read-out: GI50) was 10 nM and the “Differential vs mean Log(GI50)” value (MALME-3M) was −0.669. For the same molecule, the GI50 (NCI-H522; [1]) was 0.166 nM, the GI50 (NCI-H522; read-out: GI50) was 0.166 nM and the “Differential vs mean Log(GI50)” value (NCI-H522) was 1.111. For the same molecule, the GI50 (OVCAR-5; [1]) was 10 nM, the GI50 (OVCAR-5; read-out: GI50) was 10 nM and the “Differential vs mean Log(GI50)” value (OVCAR-5) was −0.669. The GI50 (HOP-62; [1]) was 10 nM, the GI50 (HOP-62; read-out: GI50) was 10 nM and the “Differential vs mean Log(GI50)” value (HOP-62) was −0.669. For the same molecule, the GI50 (OVCAR-8; [1]) was 0.324 nM, the GI50 (OVCAR-8; read-out: GI50) was 0.324 nM and the “Differential vs mean Log(GI50)” value (OVCAR-8) was 0.821. For the same molecule, the “Differential vs mean Log(GI50)” value (SF-295) was 1.122, the GI50 (SF-295; [1]) was 0.162 nM and the GI50 (SF-295; read-out: GI50) was 0.162 nM. For the same molecule, the “Differential vs mean Log(GI50)” value (SNB-75) was −0.669, the GI50 (SNB-75; [1]) was 10 nM and the GI50 (SNB-75; read-out: GI50) was 10 nM.
